From US20090082203A1, “INSECTICIDAL BIS(SUBSTITUTED PHENYL)-1-{[4-(SATURATED HETEROCYCLYL-SUBSTITUTED)PHENYLMETHYL]- (4-PIPERIDYL)}METHANE DERIVATIVES” (priority 2004, published 2009)

Tested on: tobacco budworm (Heliothis virescens [Fabricius])
Experiment: surface-treated diet test against tobacco budworm
Assay type: in vivo
Settings: 0.25 millimolar on the surface of the diet, second instar larvae, five-day exposure; for Percent Mortality: compared to the total number of insects infested; for Percent Growth Inhibition: inhibition of insect weight relative to untreated controls

Molecule	Percent Mortality	Percent Growth Inhibition
OC(c1ccc(OC(F)(F)F)cc1)(c1ccc(OC(F)(F)F)cc1)C1CCN(Cc2ccc(OCC3OCCO3)cc2)CC1 [Compound 187]	100%	100%
[O-][N+]1(Cc2ccc(OCC3OCCO3)cc2)CCC(C(O)(c2ccc(OC(F)(F)F)cc2)c2ccc(OC(F)(F)F)cc2)CC1 (centres unmarked) [Compound 188]	100%	100%
CC1(C)OCC(COc2ccc(CN3CCC(C(O)(c4ccc(OC(F)(F)F)cc4)c4ccc(OC(F)(F)F)cc4)CC3)cc2)O1 (centres unmarked) [Compound 189, bis[4-(trifluoromethoxy)-phenyl][1-({4-[(2,2-dimethyl(1,3-dioxolan-4-yl))methoxy]phenyl}methyl)(4-piperidyl)]methan-1-ol]	100%	100%
CC1(C)OCC(COc2ccc(C[N+]3([O-])CCC(C(O)(c4ccc(OC(F)(F)F)cc4)c4ccc(OC(F)(F)F)cc4)CC3)cc2)O1 (centres unmarked) [Compound 190, bis[4-(trifluoromethoxy)phenyl][1-({4-[(2,2-dimethyl-(1,3-dioxolan-4-yl))methoxy]phenyl}methyl)(4-piperidyl)]methan-1-ol, N-oxide]	100%	100%
COc1ccc(C2(COc3ccc(C[N+]4([O-])CCC(C(O)(c5ccc(OC(F)(F)F)cc5)c5ccc(OC(F)(F)F)cc5)CC4)cc3)OCCO2)cc1 (centres unmarked) [Compound 191]	100%	100%
COc1ccc(C2(COc3ccc(CN4CCC(C(O)(c5ccc(OC(F)(F)F)cc5)c5ccc(OC(F)(F)F)cc5)CC4)cc3)OCCO2)cc1 [Compound 192]	100%	100%
CC1COC(COc2ccc(CN3CCC(C(O)(c4ccc(OC(F)(F)F)cc4)c4ccc(OC(F)(F)F)cc4)CC3)cc2)O1 (centres unmarked) [Compound 193]	100%	100%
CC1COC(COc2ccc(C[N+]3([O-])CCC(C(O)(c4ccc(OC(F)(F)F)cc4)c4ccc(OC(F)(F)F)cc4)CC3)cc2)O1 (centres unmarked) [Compound 194]	100%	100%
COCC1COC(COc2ccc(CN3CCC(C(O)(c4ccc(OC(F)(F)F)cc4)c4ccc(OC(F)(F)F)cc4)CC3)cc2)O1 (centres unmarked) [Compound 195]	100%	100%
CCC1COC(COc2ccc(CN3CCC(C(O)(c4ccc(OC(F)(F)F)cc4)c4ccc(OC(F)(F)F)cc4)CC3)cc2)O1 (centres unmarked) [Compound 196]	100%	100%
COCC1COC(COc2ccc(C[N+]3([O-])CCC(C(O)(c4ccc(OC(F)(F)F)cc4)c4ccc(OC(F)(F)F)cc4)CC3)cc2)O1 (centres unmarked) [Compound 197]	100%	100%
OC(c1ccc(OC(F)(F)F)cc1)(c1ccc(OC(F)(F)F)cc1)C1CCN(Cc2ccc(OCC3OCCCO3)cc2)CC1 [Compound 199, bis[4-(trifluoromethoxy)-phenyl](1-{[4-(1,3-dioxan-2-ylmethoxy)phenyl]methyl}(4-piperidyl))methan-1-ol]	100%	100%
bis(4-trifluoromethoxyphenyl])(1-{[4-(1,3-dioxan-2-ylmethoxy)phenyl]methyl}(4-piperidyl))methan-1-ol, N-oxide [Compound 200]	100%	100%
